Experiment: logP determination by HPLC on a reverse phase column (C18), EEC Directive 79/831 Annex V.A8
Assay type: physicochemical
Conditions: HPLC C18, 43° C., Table 1
Description: The specified logP values are determined by HPLC on a reverse phase column (C18) in accordance with EEC Directive 79/831 Annex V.A8. Temperature: 43° C. Eluents for the measurement in the acid range (pH 2.3): 0.1% aqueous phosphoric acid, acetonitrile; linearer gradient of 10% acetonitrile to 90% acetonitrile. Calibration is performed with unbranched alkyl-2-ones (with 3 to 16 carbon atoms) with known logP values (determination of the logP values based on retention times by linear interpolation between two sequential alkyl ketones).

Going from Cc1nc(C(F)F)c(C(=O)Nc2ccccc2C(C)S(=O)(=O)C(C)C)s1 (stereo not shown) [compound 13] to Cc1nc(C(F)F)c(C(=O)Nc2ccccc2C(C)OC(C)C)s1 (stereo not shown) [compound 131], the “logP (pH 2.3)” value rises from 2.16 to 3.58.

Compared with Cc1nn(C)cc1C(=O)Nc1ccccc1C(C)S(=O)(=O)C(C)C (stereo not shown) [compound 14], CC(C)S(=O)(=O)C(C)c1ccccc1NC(=O)c1cn(C)nc1C(F)F (stereo not shown) [compound 16] is higher in “logP (pH 2.3)” value: 1.46 for the first, 1.86 for the second.

Compared with CC(C)S(=O)(=O)C(C)c1ccccc1NC(=O)c1cn(C)nc1C(F)(F)F (stereo not shown) [compound 15], CC(C)SC(C)c1ccccc1NC(=O)c1cn(C)nc1C(F)(F)F (stereo not shown) [compound 18] is higher in “logP (pH 2.3)” value: 2.09 for the first, 3.27 for the second.

Compared with Cc1nn(C)cc1C(=O)Nc1ccccc1C(C)SC(C)C (stereo not shown) [compound 17], CCC(C)SC(C)c1ccccc1NC(=O)c1cn(C)nc1C (stereo not shown) [compound 84] is higher in “logP (pH 2.3)” value: 2.53 for the first, 2.90 for the second.

First: Cc1nn(C)c(F)c1C(=O)Nc1ccccc1C(C)SC(C)C (stereo not shown) [compound 19]
Second: Cc1nn(C)c(F)c1C(=O)Nc1ccccc1C(C)SC1CCCC1 (stereo not shown) [compound 100]
The “logP (pH 2.3)” value of the first is lower: 2.98 for the first, 4.03 for the second.

First: Cc1sccc1C(=O)Nc1ccccc1C(C)SC(C)C (stereo not shown) [compound 20]
Second: Cc1occc1C(=O)Nc1ccccc1C(C)SC(C)C (stereo not shown) [compound 24]
The “logP (pH 2.3)” value of the first is higher: 4.03 for the first, 3.71 for the second.

Compared with CC(C)SC(C)c1ccccc1NC(=O)c1ccccc1Cl (stereo not shown) [compound 21], CCC(C)SC(C)c1ccccc1NC(=O)c1ccccc1Cl (stereo not shown) [compound 73] is higher in “logP (pH 2.3)” value: 3.74 for the first, 4.17 for the second.

First: CC(C)SC(C)c1ccccc1NC(=O)c1cccnc1Cl (stereo not shown) [compound 22]
Second: CC(C)OC(C)c1ccccc1NC(=O)c1cccnc1Cl (stereo not shown) [compound 132]
The “logP (pH 2.3)” value of the first is higher: 2.95 for the first, 2.72 for the second.

First: CC(C)SC(C)c1ccccc1NC(=O)c1ccccc1C(F)(F)F (stereo not shown) [compound 23]
Second: CCC(C)SC(C)c1ccccc1NC(=O)c1ccccc1C(F)(F)F (stereo not shown) [compound 75]
The “logP (pH 2.3)” value of the first is lower: 3.90 for the first, 4.31 for the second.

Cc1nc(C(F)(F)F)c(C(=O)Nc2ccccc2C(C)SC(C)C)s1 (stereo not shown) [compound 25] and Cc1nc(C(F)(F)F)c(C(=O)Nc2ccccc2C(C)OC(C)C)s1 (stereo not shown) [compound 133] are within 0.2 log units of each other in “logP (pH 2.3)” value: 3.73 for the first, 3.65 for the second.

First: Cc1nc(C(F)F)c(C(=O)Nc2ccccc2CSC(C)C)s1 [compound 35]
Second: CCC(C)SC(C)c1ccccc1NC(=O)c1sc(C)nc1C(F)F (stereo not shown) [compound 78]
The “logP (pH 2.3)” value of the first is lower: 3.27 for the first, 3.95 for the second.

Going from CC(C)SCc1ccccc1NC(=O)c1cn(C)nc1C(F)(F)F [compound 36] to CC(C)C(=O)OCc1ccccc1NC(=O)c1cn(C)nc1C(F)(F)F [compound 55], the “logP (pH 2.3)” value falls from 3.05 to 2.74.

CC(C)SCc1ccccc1NC(=O)C1=C(C(F)(F)F)OCCS1 [compound 37] and CC(C)OC(C)c1ccccc1NC(=O)C1=C(C(F)(F)F)OCCS1 (stereo not shown) [compound 137] are within 0.2 log units of each other in “logP (pH 2.3)” value: 3.48 for the first, 3.64 for the second.

CC(C)SCc1ccccc1NC(=O)c1cn(C)nc1C(F)F [compound 38] and CC(C)OC(C)c1ccccc1NC(=O)c1cn(C)nc1C(F)F (stereo not shown) [compound 135] are within 0.2 log units of each other in “logP (pH 2.3)” value: 2.76 for the first, 2.89 for the second.

CC(C)SCc1ccccc1NC(=O)c1ccccc1I [compound 39] and CC(C)OC(C)c1ccccc1NC(=O)c1ccccc1I (stereo not shown) [compound 130] are within 0.2 log units of each other in “logP (pH 2.3)” value: 3.68 for the first, 3.83 for the second.

O=C(Nc1ccccc1COC(=O)C(Cl)Cl)c1ccccc1C(F)(F)F [compound 50] and CC(C)C(=O)OCc1ccccc1NC(=O)c1ccccc1C(F)(F)F [compound 53] are within 0.2 log units of each other in “logP (pH 2.3)” value: 3.15 for the first, 3.24 for the second.

Cc1nn(C)c(F)c1C(=O)Nc1ccccc1COC(=O)C(C)C [compound 51] and Cc1nn(C)c(F)c1C(=O)Nc1ccccc1CCOC(=O)C(C)C [compound 67] are within 0.2 log units of each other in “logP (pH 2.3)” value: 2.39 for the first, 2.40 for the second.

Cc1nn(C)c(F)c1C(=O)Nc1ccccc1COC(=O)C(Cl)Cl [compound 52] and Cc1nn(C)c(F)c1C(=O)Nc1ccccc1CCOC(=O)C(Cl)Cl [compound 68] are within 0.2 log units of each other in “logP (pH 2.3)” value: 2.36 for the first, 2.43 for the second.

Going from CC(C)OCc1ccccc1NC(=O)c1ccccc1C(F)(F)F [compound 54] to CC(C)OC(C)c1ccccc1NC(=O)c1ccccc1C(F)(F)F (stereo not shown) [compound 134], the “logP (pH 2.3)” value rises from 2.51 to 3.81.

Cn1cc(C(=O)Nc2ccccc2COC(=O)C(Cl)Cl)c(C(F)(F)F)n1 [compound 56] and Cn1cc(C(=O)Nc2ccccc2CCOC(=O)C(Cl)Cl)c(C(F)(F)F)n1 [compound 66] are within 0.2 log units of each other in “logP (pH 2.3)” value: 2.69 for the first, 2.76 for the second.

CC(C)C(=O)OCc1ccccc1NC(=O)c1cccnc1Cl [compound 57] and O=C(Nc1ccccc1COC(=O)C(Cl)Cl)c1cccnc1Cl [compound 58] are the same in “logP (pH 2.3)” value: 2.38 for the first, 2.38 for the second.

Compared with CC(C)C(=O)OCc1ccccc1N(C(=O)c1cccnc1Cl)C(=O)C(C)C [compound 59], CC(C)C(=O)OCCc1ccccc1NC(=O)c1cn(C)nc1C(F)(F)F [compound 64] is lower in “logP (pH 2.3)” value: 3.49 for the first, 2.79 for the second.

Compared with CC(=O)OC(C)(C)CCc1ccccc1NC(=O)c1ccccc1C(F)(F)F [compound 61], CCCC(C)SC(C)c1ccccc1NC(=O)c1ccccc1C(F)(F)F (stereo not shown) [compound 70] is higher in “logP (pH 2.3)” value: 3.30 for the first, 4.71 for the second.

First: Cn1cc(C(=O)Nc2ccccc2CCO)c(C(F)(F)F)n1 [compound 62]
Second: Cn1cc(C(=O)Nc2ccccc2CCO[Si](C)(C)C(C)(C)C)c(C(F)(F)F)n1 [compound 65]
The “logP (pH 2.3)” value of the first is lower: 1.62 for the first, 4.59 for the second.

Compared with Cc1nn(C)c(F)c1C(=O)Nc1ccccc1CCO [compound 63], Cc1nn(C)c(F)c1C(=O)Nc1ccccc1CCO[Si](C)(C)C(C)(C)C [compound 69] is higher in “logP (pH 2.3)” value: 1.21 for the first, 4.49 for the second.

CCCC(C)SC(C)c1ccccc1NC(=O)c1ccccc1Cl (stereo not shown) [compound 72] and CCCC(C)SC(C)c1ccccc1NC(=O)c1ccccc1Br (stereo not shown) [compound 81] are within 0.2 log units of each other in “logP (pH 2.3)” value: 4.60 for the first, 4.63 for the second.

Compared with CCC(C)SC(C)c1ccccc1NC(=O)c1ccoc1C (stereo not shown) [compound 74], CCCC(C)SC(C)c1ccccc1NC(=O)c1ccoc1C (stereo not shown) [compound 77] is higher in “logP (pH 2.3)” value: 4.17 for the first, 4.61 for the second.

First: CCCC(C)SC(C)c1ccccc1NC(=O)c1sc(C)nc1C(F)F (stereo not shown) [compound 79]
Second: CCCC(C)SC(C)c1ccccc1NC(=O)c1cn(C)nc1C(F)F (stereo not shown) [compound 85]
The “logP (pH 2.3)” value of the first is higher: 4.36 for the first, 3.76 for the second.

CCC(C)SC(C)c1ccccc1NC(=O)c1cn(C)nc1C(F)F (stereo not shown) [compound 80] and CCCC(C)SC(C)c1ccccc1NC(=O)c1cn(C)nc1C (stereo not shown) [compound 82] are within 0.2 log units of each other in “logP (pH 2.3)” value: 3.38 for the first, 3.27 for the second.

CCC(C)SC(C)c1ccccc1NC(=O)c1ccccc1Br (stereo not shown) [compound 83] and CC(SC1CCCC1)c1ccccc1NC(=O)c1ccccc1Br (stereo not shown) [compound 93] are within 0.2 log units of each other in “logP (pH 2.3)” value: 4.21 for the first, 4.34 for the second.

Compared with CCC(C)SC(C)c1ccccc1NC(=O)C1=C(C)OCCS1 (stereo not shown) [compound 86], CCCC(C)SC(C)c1ccccc1NC(=O)C1=C(C)OCCS1 (stereo not shown) [compound 87] is higher in “logP (pH 2.3)” value: 4.07 for the first, 4.53 for the second.

Going from CCC(C)SC(C)c1ccccc1NC(=O)c1cn(C)cc1C(F)(F)F (stereo not shown) [compound 88] to CC(C)OC(C)c1ccccc1NC(=O)c1cn(C)nc1C(F)(F)F (stereo not shown) [compound 127], the “logP (pH 2.3)” value falls from 3.92 to 3.14.

Going from CCC(C)SC(C)c1ccccc1NC(=O)C1=C(C)OCCS1 (stereo not shown) [compound 89] to CC1=C(C(=O)Nc2ccccc2C(C)SC(C)C)SCCO1 (stereo not shown) [compound 98], the “logP (pH 2.3)” value falls from 4.10 to 3.65.

First: Cc1sccc1C(=O)Nc1ccccc1C(C)SC1CCCC1 (stereo not shown) [compound 90]
Second: Cc1occc1C(=O)Nc1ccccc1C(C)SC1CCCC1 (stereo not shown) [compound 91]
The “logP (pH 2.3)” value of the first is lower: 3.16 for the first, 4.31 for the second.

CC(SC1CCCC1)c1ccccc1NC(=O)c1ccccc1Cl (stereo not shown) [compound 92] and Cc1ccccc1C(=O)Nc1ccccc1C(C)SC1CCCC1 (stereo not shown) [compound 99] are within 0.2 log units of each other in “logP (pH 2.3)” value: 4.29 for the first, 4.44 for the second.

Going from Cc1nc(C(F)(F)F)c(C(=O)Nc2ccccc2C(C)SC2CCCC2)s1 (stereo not shown) [compound 94] to CC(SC1CCCC1)c1ccccc1NC(=O)c1cn(C)nc1C(F)(F)F (stereo not shown) [compound 96], the “logP (pH 2.3)” value falls from 4.24 to 3.76.

First: Cc1nn(C)cc1C(=O)Nc1ccccc1C(C)SC1CCCC1 (stereo not shown) [compound 95]
Second: CC(SC1CCCC1)c1ccccc1NC(=O)c1cn(C)nc1C(F)F (stereo not shown) [compound 101]
The “logP (pH 2.3)” value of the first is lower: 3.04 for the first, 3.48 for the second.

Compared with CC(SC1CCCC1)c1ccccc1NC(=O)c1ccccc1C(F)(F)F (stereo not shown) [compound 97], Cc1occc1C(=O)Nc1ccccc1C(C)OC(C)C (stereo not shown) [compound 126] is lower in “logP (pH 2.3)” value: 4.41 for the first, 3.80 for the second.

Compared with CC1=C(C(=O)Nc2ccccc2C(C)OC(C)C)SCCO1 (stereo not shown) [compound 128], CC(C)OC(C)c1ccccc1NC(=O)c1cn(C)nc1I (stereo not shown) [compound 129] is lower in “logP (pH 2.3)” value: 3.47 for the first, 2.75 for the second.

In the case of CC(C)OC(C)c1ccccc1NC(=O)c1cnn(C)c1C(F)F (stereo not shown) [compound 136], the “logP (pH 2.3)” value is reported as 3.67.
